From ChEMBL document CHEMBL2021894, “The Discovery of VX-745: A Novel and Selective p38α Kinase Inhibitor” (ACS Med Chem Lett, 2011)
The source made the active and inactive calls. The calls are words filed in the database; no cut-off is given here.

Columns and labels:
[1] = system: PBMC; assay: Antiproliferative activity against PHA-stimulated human PBMC assessed as inhibition of cell proliferation after 72 hrs by thymidine incorporation assay; format: cell-based
[2] = target: Mitogen-activated protein kinase 10 (Homo sapiens) (UniProt P53779); assay: Inhibition of JNK3 using KRELVEPLTPSGEAPNQALLR as substrate at 100 uM by spectrophotometric enzyme-coupled assay
[3] = target: Dual specificity mitogen-activated protein kinase kinase 6 (Homo sapiens) (UniProt P52564); assay: Inhibition of MKK6
Sequence of Dual specificity mitogen-activated protein kinase kinase 6 (Homo sapiens) (P52564 whole entry): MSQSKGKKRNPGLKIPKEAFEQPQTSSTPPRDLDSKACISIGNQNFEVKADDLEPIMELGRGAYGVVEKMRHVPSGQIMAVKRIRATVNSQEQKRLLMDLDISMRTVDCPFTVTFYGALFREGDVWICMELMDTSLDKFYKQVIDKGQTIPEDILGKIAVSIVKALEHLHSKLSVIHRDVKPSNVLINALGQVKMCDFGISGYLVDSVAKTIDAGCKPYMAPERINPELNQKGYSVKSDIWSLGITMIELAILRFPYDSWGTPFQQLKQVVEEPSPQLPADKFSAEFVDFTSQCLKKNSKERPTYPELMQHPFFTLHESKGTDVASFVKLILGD

[4] = target: Tyrosine-protein kinase Fyn (Homo sapiens) (UniProt P06241); assay: Inhibition of Fyn at 2 uM
[5] = target: Tyrosine-protein kinase Lck (Homo sapiens) (UniProt P06239); assay: Inhibition of LCK at 2 uM
[6] = target: Dual specificity mitogen-activated protein kinase kinase 1 (Homo sapiens) (UniProt Q02750); assay: Inhibition of Mek1 at 2 uM
[7] = target: Dual specificity mitogen-activated protein kinase kinase 6 (Homo sapiens) (UniProt P52564); assay: Inhibition of MKK6 at 2 uM
[8] = target: MAP kinase-activated protein kinase 5 (Homo sapiens) (UniProt Q8IW41); assay: Inhibition of PRAK at 2 uM
[9] = target: Serine/threonine-protein kinase N2 (Homo sapiens) (UniProt Q16513); assay: Inhibition of PRK2 at 2 uM
Sequence of Serine/threonine-protein kinase N2 (Homo sapiens) (Q16513 whole entry, looked up): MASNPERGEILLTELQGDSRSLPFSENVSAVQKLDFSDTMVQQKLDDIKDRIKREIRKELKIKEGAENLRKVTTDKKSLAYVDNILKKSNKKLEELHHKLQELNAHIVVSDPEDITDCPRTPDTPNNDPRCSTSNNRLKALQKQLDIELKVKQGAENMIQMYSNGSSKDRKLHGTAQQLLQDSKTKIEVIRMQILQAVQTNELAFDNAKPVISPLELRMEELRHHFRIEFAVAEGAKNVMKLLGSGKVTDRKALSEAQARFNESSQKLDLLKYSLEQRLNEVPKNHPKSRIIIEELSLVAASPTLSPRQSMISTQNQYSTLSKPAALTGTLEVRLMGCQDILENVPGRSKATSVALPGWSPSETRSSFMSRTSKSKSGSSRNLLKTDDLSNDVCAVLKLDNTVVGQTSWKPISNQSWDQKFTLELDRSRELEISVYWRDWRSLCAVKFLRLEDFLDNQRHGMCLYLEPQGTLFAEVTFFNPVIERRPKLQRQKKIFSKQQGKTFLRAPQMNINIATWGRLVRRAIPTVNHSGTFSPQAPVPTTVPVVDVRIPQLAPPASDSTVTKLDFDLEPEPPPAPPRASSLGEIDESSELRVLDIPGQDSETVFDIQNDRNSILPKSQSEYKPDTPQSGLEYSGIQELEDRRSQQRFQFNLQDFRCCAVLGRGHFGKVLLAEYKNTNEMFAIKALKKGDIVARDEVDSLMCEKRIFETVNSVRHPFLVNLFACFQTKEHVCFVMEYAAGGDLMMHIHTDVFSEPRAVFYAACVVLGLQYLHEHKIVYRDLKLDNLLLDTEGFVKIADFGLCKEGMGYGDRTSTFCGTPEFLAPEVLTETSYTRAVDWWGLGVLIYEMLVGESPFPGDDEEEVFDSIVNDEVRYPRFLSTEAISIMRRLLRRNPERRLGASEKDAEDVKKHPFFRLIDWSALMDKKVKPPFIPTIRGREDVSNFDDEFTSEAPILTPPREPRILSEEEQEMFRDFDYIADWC

[10] = target: Serine/threonine-protein kinase Sgk1 (Homo sapiens) (UniProt O00141); assay: Inhibition of SGK at 2 uM
[11] = Half life in Sprague-Dawley rat at 4.8 mg/kg, iv; format: ADME, organism-based; set-up: dose 4.8 mg/kg, route intravenous; details: in vivo
[12] = Volume of distribution at steady state in Sprague-Dawley rat at 4.8 mg/kg, iv; format: ADME, organism-based; set-up: dose 4.8 mg/kg, route intravenous; details: in vivo, read-out: Vdss
[13] = AUC in Sprague-Dawley rat at 4.8 mg/kg, iv; format: ADME, organism-based; set-up: dose 4.8 mg/kg, route intravenous; details: plasma
[14] = Clearance in Sprague-Dawley rat at 4.8 mg/kg, iv; format: ADME, organism-based; set-up: dose 4.8 mg/kg, route intravenous; details: in vivo
[15] = Half life in BALB/c mouse at 2 mg/kg, iv; format: ADME, organism-based; set-up: dose 2 mg/kg, route intravenous; details: in vivo
[16] = Volume of distribution at steady state in BALB/c mouse at 2 mg/kg, iv; format: ADME, organism-based; set-up: dose 2 mg/kg, route intravenous; details: in vivo, read-out: Vdss
[17] = AUC in BALB/c mouse at 2 mg/kg, iv; format: ADME, organism-based; set-up: dose 2 mg/kg, route intravenous; details: plasma
[18] = Volume of distribution at steady state in beagle dog at 13.8 mg/kg, iv; format: ADME, organism-based, Canis lupus familiaris; set-up: dose 13.8 mg/kg, route intravenous; details: in vivo, read-out: Vdss
[19] = system: Canis familiaris; assay: AUC in beagle dog at 13.8 mg/kg, iv; format: ADME, organism-based, Canis lupus familiaris, Plasma; set-up: dose 13.8 mg/kg, route intravenous; details: in vivo
[20] = Clearance in beagle dog at 13.8 mg/kg, iv; format: ADME, organism-based, Canis lupus familiaris; set-up: dose 13.8 mg/kg, route intravenous; details: in vivo
[21] = Cmax in Sprague-Dawley rat at 43 mg/kg, po; format: ADME, organism-based; set-up: dose 43 mg/kg, route oral; details: in vivo
[22] = AUC in Sprague-Dawley rat at 43 mg/kg, po; format: ADME, organism-based; set-up: dose 43 mg/kg, route oral; details: plasma
[23] = AUC in BALB/c mouse at 40 mg/kg, po; format: ADME, organism-based; set-up: dose 40 mg/kg, route oral; details: plasma
[24] = Oral bioavailability in BALB/c mouse at 40 mg/kg; format: ADME, organism-based; details: in vivo
[25] = Half life in beagle dog at 33 mg/kg, po; format: ADME, organism-based, Canis lupus familiaris; set-up: dose 33 mg/kg, route oral; details: in vivo
[26] = Cmax in beagle dog at 33 mg/kg, po; format: ADME, organism-based, Canis lupus familiaris; set-up: dose 33 mg/kg, route oral; details: in vivo
[27] = system: Canis familiaris; assay: AUC in beagle dog at 33 mg/kg, po; format: ADME, organism-based, Canis lupus familiaris, Plasma; set-up: dose 33 mg/kg, route oral; details: in vivo
[28] = system: Canis familiaris; assay: Oral bioavailability in beagle dog at 33 mg/kg; format: ADME, organism-based, Canis lupus familiaris; details: in vivo
[29] = Induction of human cytochrome P450; format: ADME
[30] = target: Cytochrome P450 3A4 (Homo sapiens, UniProt P08684); assay: Inhibition of human CYP3A4; format: ADME
Sequence of Cytochrome P450 3A4 (P08684 whole entry): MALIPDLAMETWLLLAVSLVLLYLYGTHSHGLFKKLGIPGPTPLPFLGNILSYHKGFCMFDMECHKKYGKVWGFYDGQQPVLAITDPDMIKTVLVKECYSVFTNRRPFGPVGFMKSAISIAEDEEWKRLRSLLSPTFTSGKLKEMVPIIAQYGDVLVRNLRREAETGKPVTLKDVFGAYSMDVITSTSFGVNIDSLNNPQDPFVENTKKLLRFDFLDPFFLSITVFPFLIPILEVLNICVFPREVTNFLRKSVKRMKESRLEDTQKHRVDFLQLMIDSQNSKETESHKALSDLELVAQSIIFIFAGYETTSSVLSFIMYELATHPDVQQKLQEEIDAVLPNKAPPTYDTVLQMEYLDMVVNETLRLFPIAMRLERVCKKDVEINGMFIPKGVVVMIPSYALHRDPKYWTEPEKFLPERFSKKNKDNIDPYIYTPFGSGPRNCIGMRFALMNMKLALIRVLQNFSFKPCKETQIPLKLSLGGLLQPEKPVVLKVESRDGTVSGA

[31] = target: Cytochrome P450 2D6 (Homo sapiens, UniProt P10635); assay: Inhibition of human CYP2D6; format: ADME
Sequence of Cytochrome P450 2D6 (P10635 whole entry): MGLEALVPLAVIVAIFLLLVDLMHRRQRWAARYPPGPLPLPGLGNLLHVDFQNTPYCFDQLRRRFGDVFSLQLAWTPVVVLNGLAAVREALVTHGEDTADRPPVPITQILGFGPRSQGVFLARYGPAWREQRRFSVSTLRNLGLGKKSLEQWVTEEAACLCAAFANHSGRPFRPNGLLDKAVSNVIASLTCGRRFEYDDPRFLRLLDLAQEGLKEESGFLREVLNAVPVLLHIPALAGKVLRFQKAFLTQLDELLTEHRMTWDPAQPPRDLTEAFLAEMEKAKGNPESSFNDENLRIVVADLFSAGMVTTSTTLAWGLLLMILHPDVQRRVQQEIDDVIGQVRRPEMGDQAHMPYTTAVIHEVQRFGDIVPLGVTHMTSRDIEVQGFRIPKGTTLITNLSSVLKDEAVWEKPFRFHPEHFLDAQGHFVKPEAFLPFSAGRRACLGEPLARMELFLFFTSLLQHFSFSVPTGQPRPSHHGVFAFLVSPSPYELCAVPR

[32] = Plasma protein binding in rat; format: ADME, cell-free; details: read-out: PPB (converted)
[33] = Plasma protein binding in dog; format: ADME, cell-free, Canis lupus familiaris; details: read-out: PPB (converted)
[34] = system: Mus musculus; assay: Antiarthritic activity in complete Freund's adjuvant-immunized DBA/1J mouse assessed as inhibition of type 2 collagen-induced paw inflammation at 5 mg/kg, po bid measured on day 20; format: functional; details: 480 h
[35] = system: Mus musculus; assay: Antiarthritic activity in complete Freund's adjuvant-immunized DBA/1J mouse assessed as inhibition of type 2 collagen-induced bone and cartilage erosion at […], po bid measured on day 20; format: functional; details: 480 h, dose 2.5 mg/kg
[36] = system: Mus musculus; assay: Antiarthritic activity in complete Freund's adjuvant-immunized DBA/1J mouse assessed as inhibition of type 2 collagen-induced bone and cartilage erosion at 5 mg/kg, po bid measured on day 20; format: functional; details: 480 h
[37] = target: Tyrosine-protein kinase receptor UFO (Homo sapiens) (UniProt P30530); details: 2 uM
Sequence of Tyrosine-protein kinase receptor UFO (Homo sapiens) (P30530 whole entry): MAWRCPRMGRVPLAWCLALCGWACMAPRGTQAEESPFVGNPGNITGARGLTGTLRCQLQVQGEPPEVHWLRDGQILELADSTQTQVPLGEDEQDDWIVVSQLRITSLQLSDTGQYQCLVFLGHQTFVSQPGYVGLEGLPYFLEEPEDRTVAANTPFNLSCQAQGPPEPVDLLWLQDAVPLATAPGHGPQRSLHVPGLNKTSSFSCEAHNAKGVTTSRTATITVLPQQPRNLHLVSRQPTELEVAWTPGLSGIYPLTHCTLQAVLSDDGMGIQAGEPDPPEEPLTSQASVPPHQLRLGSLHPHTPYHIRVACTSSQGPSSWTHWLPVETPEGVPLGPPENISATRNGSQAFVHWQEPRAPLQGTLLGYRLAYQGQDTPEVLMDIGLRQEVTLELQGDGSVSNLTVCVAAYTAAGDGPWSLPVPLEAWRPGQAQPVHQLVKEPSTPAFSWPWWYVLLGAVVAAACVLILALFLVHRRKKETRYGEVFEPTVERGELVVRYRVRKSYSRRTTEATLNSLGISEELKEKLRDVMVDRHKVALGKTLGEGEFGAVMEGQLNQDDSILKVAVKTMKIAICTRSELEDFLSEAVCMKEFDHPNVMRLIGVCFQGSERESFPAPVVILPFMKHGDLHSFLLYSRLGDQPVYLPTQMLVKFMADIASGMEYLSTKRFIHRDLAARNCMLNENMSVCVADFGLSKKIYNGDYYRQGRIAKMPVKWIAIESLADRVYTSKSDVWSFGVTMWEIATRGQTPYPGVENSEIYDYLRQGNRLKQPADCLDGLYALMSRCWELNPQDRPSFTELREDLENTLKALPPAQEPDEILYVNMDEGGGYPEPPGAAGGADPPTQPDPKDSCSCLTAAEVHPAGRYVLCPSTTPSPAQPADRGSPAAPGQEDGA
Description: Inhibition of Axl at 2 uM

[38] = target: Tyrosine-protein kinase Blk (Homo sapiens) (UniProt P51451); details: 2 uM
Description: Inhibition of Blk at 2 uM

[39] = target: Cyclin-dependent kinase 1 (Homo sapiens) (UniProt P06493); details: 2 uM
Description: Inhibition of CDK1 at 2 uM

[40] = target: Cyclin-dependent kinase 5 (Homo sapiens) (UniProt Q00535); details: 2 uM
Description: Inhibition of CDK5 at 2 uM

[41] = target: Serine/threonine-protein kinase Chk1 (Homo sapiens) (UniProt O14757); details: 2 uM
Description: Inhibition of CHK1 at 2 uM

[42] = target: Epidermal growth factor receptor (Homo sapiens) (UniProt P00533); details: 2 uM
Description: Inhibition of EGFR at 2 uM

[43] = target: Ephrin type-B receptor 4 (Homo sapiens) (UniProt P54760); details: 2 uM
Description: Inhibition of EphB4 at 2 uM

[44] = target: Tyrosine-protein kinase Fes/Fps (Homo sapiens) (UniProt P07332); details: 2 uM
Description: Inhibition of FES at 2 uM

[45] = target: Inhibitor of nuclear factor kappa-B kinase subunit beta (Homo sapiens) (UniProt O14920); details: 2 uM
Description: Inhibition of IKKb at 2 uM

[46] = target: Insulin receptor (Homo sapiens) (UniProt P06213); details: 2 uM
Description: Inhibition of IRTK at 2 uM

[47] = target: Tyrosine-protein kinase Lyn (Homo sapiens) (UniProt P07948); details: 2 uM
Sequence of Tyrosine-protein kinase Lyn (Homo sapiens) (P07948 2-512 limits assumed): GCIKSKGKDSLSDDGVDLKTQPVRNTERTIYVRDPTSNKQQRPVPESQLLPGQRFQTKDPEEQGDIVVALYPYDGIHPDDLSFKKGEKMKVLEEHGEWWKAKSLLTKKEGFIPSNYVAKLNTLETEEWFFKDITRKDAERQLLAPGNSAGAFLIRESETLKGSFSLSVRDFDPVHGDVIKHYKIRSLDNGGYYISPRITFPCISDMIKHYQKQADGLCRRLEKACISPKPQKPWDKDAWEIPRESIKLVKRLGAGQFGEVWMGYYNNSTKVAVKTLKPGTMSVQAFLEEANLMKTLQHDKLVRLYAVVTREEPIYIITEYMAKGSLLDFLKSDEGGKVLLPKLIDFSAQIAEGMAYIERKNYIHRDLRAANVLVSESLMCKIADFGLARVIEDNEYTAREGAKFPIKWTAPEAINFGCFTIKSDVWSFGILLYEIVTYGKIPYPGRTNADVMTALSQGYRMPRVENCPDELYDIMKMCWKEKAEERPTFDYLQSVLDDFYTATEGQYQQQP
Description: Inhibition of Lyn at 2 uM

[48] = target: Dual specificity mitogen-activated protein kinase kinase 7 (Homo sapiens) (UniProt O14733); details: 2 uM
Description: Inhibition of MKK7 at 2 uM

[49] = target: Ribosomal protein S6 kinase alpha-5 (Homo sapiens) (UniProt O75582); details: 2 uM
Description: Inhibition of MSK1 at 2 uM

[50] = target: Serine/threonine-protein kinase 3 (Homo sapiens) (UniProt Q13188); details: 2 uM
Sequence of Serine/threonine-protein kinase 3 (Homo sapiens) (Q13188 whole entry): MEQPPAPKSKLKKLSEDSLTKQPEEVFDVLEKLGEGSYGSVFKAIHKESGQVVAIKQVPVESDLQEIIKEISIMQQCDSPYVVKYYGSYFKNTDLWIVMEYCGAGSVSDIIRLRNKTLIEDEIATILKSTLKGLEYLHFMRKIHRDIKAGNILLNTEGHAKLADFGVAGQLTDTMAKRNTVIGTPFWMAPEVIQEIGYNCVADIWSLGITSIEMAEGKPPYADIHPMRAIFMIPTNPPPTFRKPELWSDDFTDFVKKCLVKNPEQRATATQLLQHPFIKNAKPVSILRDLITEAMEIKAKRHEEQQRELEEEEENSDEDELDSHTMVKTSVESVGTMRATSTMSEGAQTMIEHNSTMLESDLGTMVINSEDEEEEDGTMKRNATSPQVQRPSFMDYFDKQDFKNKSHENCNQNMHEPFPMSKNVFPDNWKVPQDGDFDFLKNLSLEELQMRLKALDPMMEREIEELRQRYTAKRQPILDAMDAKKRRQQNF
Description: Inhibition of Mst2 at 2 uM

[51] = target: Protein kinase C theta type (Homo sapiens) (UniProt Q04759); details: 2 uM
Sequence of Protein kinase C theta type (Homo sapiens) (Q04759 whole entry, looked up): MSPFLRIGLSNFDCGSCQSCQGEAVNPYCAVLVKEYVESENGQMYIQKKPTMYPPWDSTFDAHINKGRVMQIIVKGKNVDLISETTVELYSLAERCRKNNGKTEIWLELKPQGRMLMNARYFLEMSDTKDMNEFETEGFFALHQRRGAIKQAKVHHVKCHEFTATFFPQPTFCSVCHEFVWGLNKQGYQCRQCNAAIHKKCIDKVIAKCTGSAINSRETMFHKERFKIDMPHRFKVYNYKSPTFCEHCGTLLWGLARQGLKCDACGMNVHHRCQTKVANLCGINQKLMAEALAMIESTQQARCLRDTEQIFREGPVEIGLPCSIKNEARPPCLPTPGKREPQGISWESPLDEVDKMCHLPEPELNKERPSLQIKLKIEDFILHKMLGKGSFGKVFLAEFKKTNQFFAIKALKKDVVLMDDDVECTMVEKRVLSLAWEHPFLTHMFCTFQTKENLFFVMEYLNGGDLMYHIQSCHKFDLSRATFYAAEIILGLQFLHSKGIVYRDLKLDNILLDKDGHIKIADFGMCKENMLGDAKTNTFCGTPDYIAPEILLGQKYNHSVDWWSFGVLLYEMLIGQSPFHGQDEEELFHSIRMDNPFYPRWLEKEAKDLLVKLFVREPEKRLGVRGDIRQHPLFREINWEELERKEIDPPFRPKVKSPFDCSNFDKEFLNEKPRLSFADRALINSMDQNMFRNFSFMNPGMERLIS
Description: Inhibition of PKCtheta at 2 uM

[52] = target: RAF proto-oncogene serine/threonine-protein kinase (Homo sapiens) (UniProt P04049); details: 2 uM
Description: Inhibition of RAFc at 2 uM

[53] = target: Ribosomal protein S6 kinase alpha-2 (Homo sapiens) (UniProt Q15349); details: 2 uM
Description: Inhibition of Rsk3 at 2 uM

O=c1ncn2nc(Sc3ccc(F)cc3F)ccc2c1-c1c(Cl)cccc1Cl [NEFLAMAPIMOD]
Activity [1]: Non-toxic
inhibition [2]: inactive
inhibition [3]: Active
inhibition [4]: 6%
inhibition [5]: 20%
inhibition [6]: 5%
inhibition [7]: 95%
inhibition [8]: 12%
inhibition [9]: 13%
inhibition [10]: 5%
half-life [11]: 1.9 h
Vd [12]: 3.9 L/kg
AUC [13]: 1260 ng·h/mL
clearance [14]: 63 mL/min/kg
half-life [15]: 2.6 h
Vd [16]: 2.2 L/kg
AUC [17]: 1540 ng·h/mL
Vd [18]: 2.3 L/kg
AUC [19]: 6120 ng·h/mL
clearance [20]: 39 mL/min/kg
Cmax [21]: 890 ng/mL
AUC [22]: 6300 ng·h/mL
AUC [23]: 27000 ng·h/mL
bioavailability [24]: 87%
half-life [25]: 4.5 h
Cmax [26]: 1370 ng/mL
AUC [27]: 4340 ng·h/mL
F [28]: 69%
Activity [29]: Not Active
IC50 [30]: > 40 µM
IC50 [31]: > 40 µM
fraction unbound [32]: 0.02
fraction unbound [33]: 0.08
inhibition in vivo at 5 mg/kg [34]: 31%
inhibition in vivo at […] [35]: 35%
inhibition in vivo at 5 mg/kg [36]: 32%
inhibition [37]: 0%
inhibition [38]: 0%
inhibition [39]: 0%
inhibition [40]: 0%
inhibition [41]: 0%
inhibition [42]: 7%
inhibition [43]: 16%
inhibition [44]: 7%
inhibition [45]: 0%
inhibition [46]: 0%
inhibition [47]: 0%
inhibition [48]: 0%
inhibition [49]: 0%
inhibition [50]: 0%
inhibition [51]: 0%
inhibition [52]: 0%
inhibition [53]: 0%
